IC50 data for 31 molecules are collected here from patent US8304419B2, “Chemical compounds” (priority 2007, dated 2012).

SMILES strings stand for the structures. Structures can show the parent of a compound that is named as a salt. Where only a bound is given, the exact number is not on record here.

One assay concerns HIV wild type (WTRVA). Briefly: HeLa cell assay, wild type virus (WTRVA). Type of assay: cell-based, HIV-1. Details: scale not given here. To be noted: Human immunodeficiency virus 1, HeLa, HeLa cell assay; read-out: IC50 against WTRVA.
For the molecule `N#Cc1cc(Cl)cc(Oc2c(Br)ccc(CNC(=O)c3[nH]cnc3Cl)c2F)c1` [Example 378, N-({4-bromo-3-[(3-chloro-5-cyanophenyl)oxy]-2-fluorophenyl}methyl)-4-chloro-1H-imidazole-5-carboxamide], the IC50 is below 0.01 µM.
Still for that read-out and setting: the figure for `CCc1ccc(CNC(=O)c2[nH]cnc2Cl)c(F)c1Oc1cc(Cl)cc(C#N)c1` [Example 250, 4-chloro-N-({3-[(3-chloro-5-cyanophenyl)oxy]-4-ethyl-2-fluorophenyl}methyl)-1H-imidazole-5-carboxamide] is below 0.01 µM.
Turning to `N#Cc1cc(Cl)cc(Oc2c(Cl)ccc(CNC(=O)c3[nH]ccc3Br)c2F)c1` [Example 204, 3-bromo-N-({4-chloro-3-[(3-chloro-5-cyanophenyl)oxy]-2-fluorophenyl}methyl)-1H-pyrrole-2-carboxamide], the IC50 is below 0.01 µM.
Same read-out and setting: the value for `N#Cc1cc(Cl)cc(Oc2c(Br)ccc(CNC(=O)c3nc(N)[nH]c3Cl)c2F)c1` [Example 239, 2-amino-N-({4-bromo-3-[(3-chloro-5-cyanophenyl)oxy]-2-fluorophenyl}methyl)-4-chloro-1H-imidazole-5-carboxamide] was below 0.01 µM.
As for `CN(C)Cc1cc(C#N)cc(Oc2c(Cl)ccc(CNC(=O)c3[nH]cnc3Cl)c2F)c1` [Example 311, 4-chloro-N-{[4-chloro-3-({3-cyano-5-[(dimethylamino)methyl]phenyl}oxy)-2-fluorophenyl]methyl}-1H-imidazole-5-carboxamide trifluoroacetate], the IC50 was below 0.01 µM.
Still for that read-out and setting: the figure for `Cc1nc(Cl)c(C(=O)NCc2ccc(Cl)c(Oc3cc(Br)cc(C#N)c3)c2F)[nH]1` [Example 299, N-({3-[(3-bromo-5-cyanophenyl)oxy]-4-chloro-2-fluorophenyl}methyl)-4-chloro-2-methyl-1H-imidazole-5-carboxamide] is below 0.01 µM; for `N#Cc1cc(Oc2c(Cl)ccc(CNC(=O)c3[nH]cnc3Cl)c2F)cc(C(F)F)c1` [Example 309, 4-chloro-N-[(4-chloro-3-{[3-cyano-5-(difluoromethyl)phenyl]oxy}-2-fluorophenyl)methyl]-1H-imidazole-5-carboxamide] it is below 0.01 µM; for `CCc1cc(C#N)cc(Oc2c(Cl)ccc(CNC(=O)c3[nH]c(C)nc3Cl)c2F)n1` [Example 274, 4-Chloro-N-({4-chloro-3-[(4-cyano-6-ethyl-2-pyridinyl)oxy]-2-fluorophenyl}methyl)-2-methyl-1H-imidazole-5-carboxamide] it is below 0.01 µM.
Same read-out and setting: the value for `Cc1cc(C#N)cc(Oc2c(Br)ccc(CNC(=O)c3[nH]c(N)nc3Cl)c2F)c1` [Example 240, 2-amino-N-({4-bromo-3-[(3-cyano-5-methylphenyl)oxy]-2-fluorophenyl}methyl)-4-chloro-1H-imidazole-5-carboxamide trifluoroacetate] was below 0.01 µM; that for `CCc1cc(Cl)cc(Oc2c(Cl)ccc(CNC(=O)c3[nH]cnc3Cl)c2F)c1` [Example 290, 4-chloro-N-({4-chloro-3-[(3-chloro-5-ethylphenyl)oxy]-2-fluorophenyl}methyl)-1H-imidazole-5-carboxamide] was below 0.01 µM.
In the case of `N#Cc1cc(Cl)cc(Oc2c(Cl)ccc(CNC(=O)c3[nH]cnc3Br)c2F)c1` [Example 133, 4-bromo-N-({4-chloro-3-[(3-chloro-5-cyanophenyl)oxy]-2-fluorophenyl}methyl)-1H-imidazole-5-carboxamide trifluoroacetate], the IC50 was below 0.01 µM.
The same measure, in the same setting: the value for `CC(C)c1cc(C#N)cc(Oc2c(Cl)ccc(CNC(=O)c3[nH]cnc3Cl)c2F)c1` [Example 159, 4-chloro-N-[(4-chloro-3-{[3-cyano-5-(1-methylethyl)phenyl]oxy}-2-fluorophenyl)methyl]-1H-imidazole-5-carboxamide] was below 0.01 µM.

Staying with this assay, now noted: Human immunodeficiency virus 1, HeLa, HeLa-CD4-LTR-β-gal cells, wild type virus; read-out: WTRVA activity level.
Turning to `Cc1c(C(=O)NCc2ccc(Cl)c(Oc3cc(Cl)cc(C#N)c3)c2F)[nH]c2ccccc12` [Example 39, N-({4-chloro-3-[(3-chloro-5-cyanophenyl)oxy]-2-fluorophenyl}methyl)-3-methyl-1H-indole-2-carboxamide], the IC50 was below 0.01 µM.
On the same count and under the same terms, the figure for `Cn1cnc(C(=O)NCc2ccc(Cl)c(Oc3cc(Cl)cc(C#N)c3)c2F)c1` [Example 64, N-({4-chloro-3-[(3-chloro-5-cyanophenyl)oxy]-2-fluorophenyl}methyl)-1-methyl-1H-imidazole-4-carboxamide trifluoroacetate] is 0.01 to 1 µM.
On the same count and under the same terms, the value for `COc1cccc2[nH]c(C(=O)NCc3ccc(Cl)c(Oc4cc(Cl)cc(C#N)c4)c3F)cc12` [Example 34, N-({4-chloro-3-[(3-chloro-5-cyanophenyl)oxy]-2-fluorophenyl}methyl)-4-(methyloxy)-1H-indole-2-carboxamide] was below 0.01 µM.
As for `N#Cc1cc(Cl)cc(Oc2c(Cl)ccc(CNC(=O)c3cc4cccc([N+](=O)[O-])c4[nH]3)c2F)c1` [Example 37, N-({4-chloro-3-[(3-chloro-5-cyanophenyl)oxy]-2-fluorophenyl}methyl)-7-nitro-1H-indole-2-carboxamide], the IC50 was 0.01 to 1 µM.
`CC(=O)NCc1ccc2cc(C(=O)NCc3ccc(Cl)c(Oc4cc(Cl)cc(C#N)c4)c3F)[nH]c2c1` [Example 74, 6-[(acetylamino)methyl]-N-({4-chloro-3-[(3-chloro-5-cyanophenyl)oxy]-2-fluorophenyl}methyl)-1H-indole-2-carboxamide trifluoroacetate]: the IC50 is below 0.01 µM.
The same measure, in the same setting: the figure for `Cc1cccc2cc(C(=O)NCc3ccc(Cl)c(Oc4cc(Cl)cc(C#N)c4)c3F)[nH]c12` [Example 108, N-({4-chloro-3-[(3-chloro-5-cyanophenyl)oxy]-2-fluorophenyl}methyl)-7-methyl-1H-indole-2-carboxamide] is 0.01 to 1 µM; for `COc1ccc(C(=O)NCc2ccc(Cl)c(Oc3cc(Cl)cc(C#N)c3)c2F)cn1` [Example 42, N-({4-chloro-3-[(3-chloro-5-cyanophenyl)oxy]-2-fluorophenyl}methyl)-6-(methyloxy)-3-pyridinecarboxamide] it is 0.01 to 1 µM.
On the same count and under the same terms, the figure for `CCc1nc(Cl)c(C(=O)NCc2ccc(Cl)c(Oc3cc(Cl)cc(C#N)c3)c2F)[nH]1` [Example 77, 4-chloro-N-({4-chloro-3-[(3-chloro-5-cyanophenyl)oxy]-2-fluorophenyl}methyl)-2-ethyl-1H-imidazole-5-carboxamide trifluoroacetate] is below 0.01 µM.
Same read-out and setting: the figure for `N#Cc1cc(Cl)cc(Oc2c(Cl)ccc(CNC(=O)c3cc4cc(F)ccc4[nH]3)c2F)c1` [Example 41, N-({4-chloro-3-[(3-chloro-5-cyanophenyl)oxy]-2-fluorophenyl}methyl)-5-fluoro-1H-indole-2-carboxamide] is 0.01 to 1 µM.
As for `N#Cc1cc(Cl)cc(Oc2c(Cl)ccc(CNC(=O)c3[nH]c4ccccc4c3Br)c2F)c1` [Example 53, 3-bromo-N-({4-chloro-3-[(3-chloro-5-cyanophenyl)oxy]-2-fluorophenyl}methyl)-1H-indole-2-carboxamide], the IC50 is 0.01 to 1 µM.
The same measure, in the same setting: the figure for `N#Cc1cc(Cl)cc(Oc2c(Cl)ccc(CNC(=O)c3csc(-c4ccncc4)n3)c2F)c1` [Example 88, N-({4-chloro-3-[(3-chloro-5-cyanophenyl)oxy]-2-fluorophenyl}methyl)-2-(4-pyridinyl)-1,3-thiazole-4-carboxamide trifluoroacetate] is 0.01 to 1 µM; for `N#Cc1cc(Cl)cc(Oc2c(Cl)ccc(CNC(=O)c3cc4ccc(Cl)cc4[nH]3)c2F)c1` [Example 110, 6-chloro-N-({4-chloro-3-[(3-chloro-5-cyanophenyl)oxy]-2-fluorophenyl}methyl)-1H-indole-2-carboxamide] it is 0.01 to 1 µM; for `CC(=O)c1ccc2cc(C(=O)NCc3ccc(Cl)c(Oc4cc(Cl)cc(C#N)c4)c3F)[nH]c2c1` [Example 78, 6-acetyl-N-({4-chloro-3-[(3-chloro-5-cyanophenyl)oxy]-2-fluorophenyl}methyl)-1H-indole-2-carboxamide trifluoroacetate] it is below 0.01 µM.
For the molecule `N#Cc1cc(Cl)cc(Oc2c(Cl)ccc(CNC(=O)c3n[nH]c([N+](=O)[O-])c3Br)c2F)c1` [Example 69, 4-bromo-N-({4-chloro-3-[(3-chloro-5-cyanophenyl)oxy]-2-fluorophenyl}methyl)-5-nitro-1H-pyrazole-3-carboxamide trifluoroacetate], the IC50 fell in the range of 0.01 to 1 µM.
Still for that read-out and setting: the figure for `CC(=O)Nc1ccc2cc(C(=O)NCc3ccc(Cl)c(Oc4cc(Cl)cc(C#N)c4)c3F)[nH]c2c1` [Example 122, 6-(acetylamino)-N-({4-chloro-3-[(3-chloro-5-cyanophenyl)oxy]-2-fluorophenyl}methyl)-1H-indole-2-carboxamide] is below 0.01 µM.
In the case of `CC(=O)c1ccc2[nH]c(C(=O)NCc3ccc(Cl)c(Oc4cc(Cl)cc(C#N)c4)c3F)cc2c1` [Example 80, 5-acetyl-N-({4-chloro-3-[(3-chloro-5-cyanophenyl)oxy]-2-fluorophenyl}methyl)-1H-indole-2-carboxamide trifluoroacetate], the IC50 was below 0.01 µM.
Still for that read-out and setting: the value for `N#Cc1cc(Cl)cc(Oc2c(Cl)ccc(CNC(=O)c3cc4ccccc4o3)c2F)c1` [Example 47, N-({4-chloro-3-[(3-chloro-5-cyanophenyl)oxy]-2-fluorophenyl}methyl)-1-benzofuran-2-carboxamide trifluoroacetate] was 0.01 to 1 µM; that for `CC(=O)Nc1ccc2[nH]c(C(=O)NCc3ccc(Cl)c(Oc4cc(Cl)cc(C#N)c4)c3F)nc2c1` [Example 125, 5-(acetylamino)-N-({4-chloro-3-[(3-chloro-5-cyanophenyl)oxy]-2-fluorophenyl}methyl)-1H-benzimidazole-2-carboxamide] was below 0.01 µM.
Same read-out and setting: the figure for `COc1ccc2[nH]c(C(=O)NCc3ccc(Cl)c(Oc4cc(Cl)cc(C#N)c4)c3F)cc2c1` [Example 20, N-({4-chloro-3-[(3-chloro-5-cyanophenyl)oxy]-2-fluorophenyl}methyl)-5-(methyloxy)-1H-indole-2-carboxamide] is 0.01 to 1 µM; for `N#Cc1cc(Cl)cc(Oc2c(Cl)ccc(CNC(=O)c3[nH]cnc3Br)c2F)c1` [Example 133, 4-bromo-N-({4-chloro-3-[(3-chloro-5-cyanophenyl)oxy]-2-fluorophenyl}methyl)-1H-imidazole-5-carboxamide trifluoroacetate] it is below 0.01 µM.
